Where two headings read alike, the source gives them in different places.
Columns and labels:
[1] = for Droplette Hydration, improvement over starting hydration: left hand
Procedure: In yet another experiment, 4 human subjects volunteered to have about 50 μL of sterile distilled water sprayed into their hand and have hydration levels measured with a Corneometer CM825 device. Skin was visually inspected for any discoloration at the time of study and after 24 hours, and subject comfort was assessed and self-reported. A pen was used to draw circles denoting a delivery site (having a circle diameter of about 1.5 cm) on the backs of the right and left hands. Hydration in the circled regions for both the right and left hands was assessed at the start with a Corneometer CM 825. A device having a configuration as disclosed in FIGS. 1-14 was used for about 30 seconds to deliver about 50 μL sterile water to the left hand of each subject. After about 5 seconds of rest, the hand was blotted dry with a tissue. About 100 μL of sterile water was topically applied to the back of the right hand of each subject in the circled region and spread to cover that area. After about 5 seconds of rest, that hand was blotted dry with a tissue.

E. Coli DH5-α = experiment: Bacterial inhibition by antibiotics passed through the device (OD 600 nm); assay type: cell-based; conditions: azithromycin 5 mg/mL, vancomycin 15 mg/mL, streptomycin 20 mg/mL, 6 hours, 37°, versus same antibiotics not passed through device
Procedure: Inhibition of bacterial strain E. Coli DH5-α with antibiotics dissolved in deionized water was tested by passing the antibiotics and water through the device. The three antibiotics tested were azithromycin (5 mg/mL), vancomycin (15 mg/mL), and streptomycin (20 mg/mL). As a positive control, the same antibiotics (not passed through the device) were tested. Additional controls included deionized water, and deionized water passed through the device. After addition of 100 μl of antibiotics or deionized water into 8 mL of LB broth, 100 μl of bacterial stock at 0.5 OD at 600 nm was added. The experiment was performed with 4 biological replicates and 3 technical replicates, providing a sample size of n=12. Samples were incubated at 37° centigrade and 200 RPM in a shaker for 6 hours and then optical density was measured at 600 nm in a spectrophotometer.

[2] = for depth of dye penetration: delivered with the device held 1 cm away from skin; for dye penetration: standard aerosol (piezoelectric transducer only) held 1 cm away
Source text: A device having a configuration as disclosed in FIGS. 1-14 was used in a test along with a standard aerosol generated using only the piezoelectric transducer to compare dye penetration between the device and the aerosol. A mix of water and brilliant blue dye with a molecular weight of 792 Daltons was used to test penetration. Both the aerosol and the device were held 1 cm away from skin, and the solution was sprayed onto chicken and porcine skin-covered tissue. The skin and tissue were cut and dye penetration was measured. […] In between a range of 500 to 800 Daltons, there are a number of antibiotics, such as those used to treat skin and soft tissue infections. One example is ceftaroline, which is an antibiotic for Methicillin-resistant Staphylococcus aureus.

For `O` [water], the “water delivered into skin, device compared to topical application” value ([1]; 4 subjects, young and mature skin) was “significantly more water was delivered”, the “Droplette Hydration, improvement over starting hydration” value ([1]; Subject 3, 1 Hour: Resting, about 50 μL sterile water by device) was 58% improvement over and the “Topical Hydration, improvement” value ([1]; Subject 3, 1 Hour: Resting, about 100 μL sterile water topically, right hand) was 0% improvement (back. The “Droplette Hydration, improvement over starting hydration” value ([1]; Subject 3, 2 Hours: had eaten lunch and consumed 2 cups of water, device) was 55% improvement over and the “Topical Hydration, improvement over baseline” value ([1]; Subject 3, 2 Hours: had eaten lunch and consumed 2 cups of water, topical, right hand) was 11% improvement over.

In the case of `[H]/N=C(/N)N[C@H]1[C@H](O)[C@@H](O)[C@H](O[C@@H]2O[C@@H](C)[C@](O)(C=O)[C@H]2O[C@@H]2O[C@@H](CO)[C@H](O)[C@@H](O)[C@@H]2NC)[C@@H](N/C(N)=N\[H])[C@@H]1O` [streptomycin], the “bacterial inhibition after being passed through the device” value (“bacterial inhibition” below) (E. Coli DH5-α) is reported as “retained their native function”.

In the case of brilliant blue [brilliant blue dye], the “depth of dye penetration” value ([2]; chicken tissue) is reported as 1.23 cm, the “depth of dye penetration” value ([2]; porcine tissue) is reported as 1 cm and the dye penetration ([2]; chicken skin) is reported as “did not penetrate either animal skin to any noticeable depth”. The dye penetration ([2]; porcine skin) was “did not penetrate either animal skin to any noticeable depth”.

For `CN[C@H](CC(C)C)C(=O)N[C@H]1C(=O)N[C@@H](CC(N)=O)C(=O)N[C@H]2C(=O)N[C@H]3C(=O)N[C@H](C(=O)N[C@H](C(=O)O)c4cc(O)cc(O)c4-c4cc3ccc4O)[C@H](O)c3ccc(c(Cl)c3)Oc3cc2cc(c3O[C@@H]2O[C@H](CO)[C@@H](O)[C@H](O)[C@H]2O[C@H]2C[C@](C)(N)[C@H](O)[C@H](C)O2)Oc2ccc(cc2Cl)[C@H]1O` [vancomycin], the “bacterial inhibition” value (E. Coli DH5-α) was “retained their native function”.

With `CC[C@H]1OC(=O)[C@H](C)[C@@H](O[C@H]2C[C@@](C)(OC)[C@@H](O)[C@H](C)O2)[C@H](C)[C@@H](O[C@@H]2O[C@H](C)C[C@H](N(C)C)[C@H]2O)[C@](C)(O)C[C@@H](C)CN(C)[C@H](C)[C@@H](O)[C@]1(C)O` [azithromycin] the “bacterial inhibition” value (E. Coli DH5-α) was “retained their native function”.

— US20220401664A1, “FLUID DELIVERY DEVICES AND METHODS” (Droplette Inc., priority 2015, published 2022)
